# Laboratory results from patent publication US9889146B2, “Benzoxaborole compounds and uses thereof” (priority 2012, dated 2018).
# Read-outs that look alike come from different tables or passages of the source.
# Experiments:
# Type in all cases: cell-based
# [1] = tested on: Enterobacter aerogenes (WT); assay: microbe, parasite or virus in culture; conditions: Klebsiella aerogenes, Enterobacter aerogenes (WT)
# [2] = tested on: Enterobacter aerogenes (AmpC); assay: microbe, parasite or virus in culture; conditions: Klebsiella aerogenes
# [3] = tested on: E. coli isolates from subject E. coli 1; assay: MIC in M9 minimal media of clinical isolates, subject E. coli 1; conditions: Escherichia coli, read-out: MIC in M9 Minimal Media
# Protocol: The E. coli and P. mirabilis strains were cultured on Trypticase Soy Agar/5% blood plates (Becton Dickinson BBL), in cation adjusted Mueller-Hinton II Broth, or in M9 minimal salts (Becton Dickinson) broth containing 0.4% glucose and 200 uM MgSO4. L-Norvaline (Sigma-Aldrich) was prepared at a concentration of 6.4 mg/ml in […], in a final volume of approx 0.5 ml, and stored at −20° C. until required.
# Minimum inhibitory concentrations (MICs) were determined using the CLSI (Clinical and Laboratory Standards Institute, formerly NCCLS) recommended broth microdilution methodology [NCCLS, 2003] using defined media.
# Throughout this study E. coli and P. mirabilis strains were cultured on Trypticase Soy Agar/5% blood plates, on M9 salts/1.2% Bacto Agar plates, in Cation Adjusted Mueller-Hinton II Broth (CAMHB), or in M9 Minimal Salt Broth containing 0.4% glucose and 200 μM MgSO4. GSK2251052 and norvaline were prepared at a concentration of 6.4 mg/mL (free base) in 100% DMSO and 100% water respectively, aliquoted in 0.5 mL individual stocks, and stored at −20° C. until required.
# Minimum inhibitory concentrations (MICs) were determined for each organism using the CLSI (Clinical and Laboratory Standards Institute) recommended broth microdilution methodology [CLSI, 2009].
# Strains tested are detailed in Table 15. MICs for norvaline and GSK2251052 could only be determined for E. coli isolates from subject E. coli 1 (Table 16) as M9 Minimal Media could not sustain growth of E. coli isolates from subject E. coli 2 (isolates 2a-2o) or P. mirabilis isolates (isolates 3a-3c) from subject E. coli 3. […] This phenotype is consistent with a mutation in the editing site of LeuRS, which could also be responsible for the concomitant decrease in susceptibility to GSK2251052 observed in isolates from Days 2, 3 and 4 (Table 16).
# Klebsiella spp. (WT) = assay: microbe, parasite or virus in culture; conditions: Klebsiella spp. (WT)
# S. marcescens (AmpC) = assay: microbe, parasite or virus in culture; conditions: Serratia marcescens
# [4] = tested on: Enterobacter cloacae (AmpC); assay: microbe, parasite or virus in culture; conditions: Enterobacter cloacae
# [5] = tested on: K. pneumoniae ATCC 13883 wild type and mutants; assay: MIC in M9 minimal media; conditions: Klebsiella pneumoniae, read-out: MICs in M9 minimal media
# Protocol: (§1) Spontaneous Resistance Frequency was determined in vitro for GSK2251052 and the resistance mutants in E. coli ATCC 25922, K. pneumoniae ATCC 13883, and P. aeruginosa ATCC 27853 strains were characterized. GSK2251052 was prepared as described in U.S. Pat. No. 7,816,344 (the entire contents of which are hereby incorporated by reference herein). LB broth, Mueller Hinton II broth (adjusted), and Difco noble agar were obtained from Becton Dickinson (Cockeysville, Md., USA). M9 minimal broth containing 1×M9 salt, 0.5 μg/ML thiamine, 1 mM MgSO4, 0.1 mM CaCl2, 2% glucose, was obtained from Teknova (Hollister, Calif., USA). Antibacterial agents ciprofloxacin, ceftazidime, chloramphenicol, gentamycin, kanamycin, polymixin B, tobramycin and trimethoprim, and amino acids were obtained from Sigma Chemicals (St. Louis, Mo., USA). Strains were obtained from ATCC (Manassas, Va., USA).
# (§2) Susceptibility tests were performed following the recommendations for aerobic bacteria (M7-A7) from the Clinical and Laboratories Standards Institute (CLSI).
# (§3) The aminoacyl-tRNA synthetase enzyme, LeuRS, ensures the correct amino acid, leucine, is attached to tRNA^Leu. The LeuRS synthetic active site is capable of aminoacylating tRNA^Leu with amino acids structural similar to leucine (norvaline, norleucine, isoleucine and methionine). These mischarged tRNA^Leu are hydrolyzed by the editing domain, thus preventing the deleterious incorporation of incorrect amino acids into the growing polypeptide. The laboratory generated mutants were further tested for their ability to grow in defined media with exogenously added amino acids. Norvaline and norleucine, structurally similar to leucine, were tested in M9 minimal media. […]
# [6] = tested on: P. aeruginosa ATCC 27853 wild type and mutants; assay: MIC in M9 minimal media; conditions: Pseudomonas aeruginosa, read-out: MICs in M9 minimal media
# Protocol: as §1, §2, §3
# [7] = tested on: E. coli ATCC 25922 wild type and mutants; assay: MIC in M9 minimal media; conditions: Escherichia coli, read-out: MICs in M9 minimal media
# Protocol: as §1, §2, §3
# [8] = tested on: E. coli ATCC 25922, K. pneumoniae ATCC 13883, and P. aeruginosa ATCC 27853; assay: Spontaneous frequency of resistance, three strains summarised
# Protocol: as §1
# Selection of resistance to GSK2251052 was attempted by spreading various amounts of bacteria onto MHBII noble agar plates containing 4×MIC (minimum inhibitory concentration) or 10×MIC of GSK2251052. Colonies were counted after 24 hours and 48 hours incubation at 37° C. […] Frequency of resistance was determined by dividing the number of resistant mutants by the total number of cells plated as determined by plating dilutions of the overnight culture on LB plates.
# E. coli (WT) = assay: microbe, parasite or virus in culture; conditions: Escherichia coli, E. coli (WT)
# [9] = GSK2251052 breakpoint, read-out: susceptibility category of MIC90
# [10] = read-out: susceptibility category of MIC90
smiles,measurement,setting,value
"NC[C@H]1OB(O)c2c(OCCCO)cccc21 [GSK2251052, (S)-3-aminomethyl-7-(3-hydroxy-propoxy)-3h-benzo[c][1,2]oxaborol-1-ol]",MIC90,"[1]; 199 isolates, read-out: MIC90",1 µg/mL
same,susceptibility category of MIC90,[1]; [9],< 4 µg/mL
same,MIC90,[2],1 µg/mL
same,MIC90,[2]; [10],< 4 µg/mL
same,MIC,"[3]; 24 h, Isolate 1a, Blood, Day 1",1 µg/mL
same,MIC,"[3]; 24 h, Isolate 1b, Urine, Day 1",1 µg/mL
same,MIC,"[3]; 48 h, Isolate 1c, Blood, Day 2",32 µg/mL
same,MIC,"[3]; 96 h, Isolate 1e, Blood, Day 4",32 µg/mL
same,MIC,"[3]; Isolate 1d, Blood, Day 3",32 µg/mL
same,MIC90,"Klebsiella spp. (WT); 159 isolates, read-out: MIC90",1 µg/mL
same,MIC90,Klebsiella spp. (WT); [9],< 4 µg/mL
same,MIC90,S. marcescens (AmpC),1 µg/mL
same,MIC90,S. marcescens (AmpC); [10],< 4 µg/mL
same,MIC90,[4],0.5 µg/mL
same,MIC90,[4]; [10],< 4 µg/mL
same,MIC,"[5]; ATCC13883, K 104(leuRS D345Y)",> 256 µg/mL
same,MIC,"[5]; ATCC13883, K 105(leuRS G229R)",> 256 µg/mL
same,MIC,"[5]; ATCC13883, K 107(leuRS S227F)",32 µg/mL
same,MIC,"[5]; ATCC13883, K 108(leuRS T248P)",> 256 µg/mL
same,MIC,"[5]; ATCC13883, K 110(leuRS V338L)",64 µg/mL
same,MIC,"[5]; ATCC13883, Klebsiella pneumoniae ATCC13883",2 µg/mL
same,MIC,"[6]; ATCC27853, P 101 (leuRS T256P)",128 µg/mL
same,MIC,"[6]; ATCC27853, P 106 (leuRS V342M)",> 256 µg/mL
same,MIC,"[6]; ATCC27853, P 108 (leuRS T252P)",> 256 µg/mL
same,MIC,"[6]; ATCC27853, P. aeruginosa ATCC27853",4 µg/mL
same,MIC,"[7]; ATCC25922, E 101(leuRS Y246H)",64 µg/mL
same,MIC,"[7]; ATCC25922, E 102(leuRS D345G)",> 256 µg/mL
same,MIC,"[7]; ATCC25922, E 107(leuRS G229S)",128 µg/mL
same,MIC,"[7]; ATCC25922, E. coli ATCC25922",1 µg/mL
same,"frequency of resistance, range",[8]; measured at 24 h,10^−7 to 10^−8
same,"frequency of resistance, range","[8]; three ATCC strains, 24 h and 48 h time points",10^−7 to 10^−8
same,MIC90,"E. coli (WT); 214 isolates, read-out: MIC90",1 µg/mL
same,MIC90,E. coli (WT); [9],< 4 µg/mL
